Measurements as given in patent US10583135B2, “Compositions for treating CMT and related disorders” (Pharnext, priority 2009, dated 2020).

Test system: Myelin Basic Protein (MBP) expression
Assay: MBP expression in PMP22 TG sensory neuron/Schwann cell co-cultures (in vitro model of CMT1A)
Assay type: cell-based, rat
Settings: day 10 (=17 days of culture), doses 1 and 6, in presence of ascorbic acid, compared to control
Method: A model of co-culture was used as an in vitro model of CMT1A. This model of myelination consists in co-culturing sensory neurons and Schwann cells from male PMP22 Transgenic (TG) dissociated Dorsal Root Ganglia (DRG).
The aim of this study is to assess the effect of 3 test compounds (+/− baclofen, naltrexone and sorbitol) and Mix7 (a mixture of these 3 drugs) on myelination process. The effect of the 3 test compounds, and their mixture on myelination, are assessed by evaluating Myelin Basic Protein (MBP) expression in presence of ascorbic acid.
Each embryo is dispatched on numerating petri dish (35 mm of diameter). The head of embryo is cut, placed on 1.5 ml tube DNAase free; the ADN is extracted with the Extract-N-Amp Tissue Kit (Sigma Aldrich). The genotyping (Male (M) and female (F), wild type and PMP22 transgenic) is performed with the kit Fast SYBR Green Master Mix (Applied Biosystem). This genotyping is performed in parallel of the dissection of dorsal root ganglia (DRG), so that at the end of the dissection, only one type of culture (DRG from transgenic male) is done. DRG of each embryo is collected, placed in ice-cold medium of Leibovitz (L15, Invitrogen). At the end of the dissection, DRG of TGM are pooled and dissociated by trypsinization (trypsin EDTA, 0.05%; Invitrogen) for 20 min at 37° C. The reaction is stopped by addition of DMEM containing 10% of fetal bovine serum (FBS) in the presence of DNAase I (Roche). The suspension is triturated with a 10 ml pipette. Cells are then centrifuged at 350×g for 10 min at room temperature. […] Viable cells are counted in a Neubauer cytometer using the trypan blue exclusion test (Sigma) and seeded on the basis of 10 000 cells per well in 96 well-plates (Greiner) treated with poly-L-lysine. […]
Three separate and independent cultures of DRG (from TG embryos male rats) are done. These conditions are assessed in presence of ascorbic acid, 6 wells per condition. The solution ready to use of all test compounds are extemporaneously prepared from a stock solution, stored at −20° C. […]

| Structure (SMILES) | MBP expression |
| --- | --- |
| NCC(CC(=O)O)c1ccc(Cl)cc1 (racemic) [(RS)-baclofen] | no substantial effect |
| OC[C@@H](O)[C@@H](O)[C@H](O)[C@@H](O)CO [D-sorbitol] | no substantial effect |
| O=C1CC[C@@]2(O)[C@H]3Cc4ccc(O)c5c4[C@@]2(CCN3CC2CC2)[C@H]1O5 [naltrexone] | no substantial effect |
